In patent US20220395553A1, “CXCR4 ANTAGONIST PEPTIDES” (COHBAR, INC., priority 2019, published 2022):

Columns and labels:
3T3-L1 Mouse Adipocytes = assay: Free fatty acid levels in cultured mouse adipocytes; format: cell-based; conditions: insulin 100 nM
Experimental: The effect of the peptides on fatty acid metabolism can be assessed using an assay of free fatty acid levels in cultured cells such as mouse adipocytes. Peptides were initially prepared as 10 mM stock in DMSO and used at a final concentration of 10 μM (0.1% DMSO). […] Mouse 3T3-L1 cells purchased from ZenBio were seeded at 3,000 cells per well in 96-well plates in Pre-adipocyte Medium (Zen-Bio) and grown to confluence at 37° C. in a humidified atmosphere of 5% CO2/95% air. Two days after confluence, cells were placed in Adipocyte Differentiation Medium (Zen-Bio) and cultured for three additional days at 37° C. in a humidified atmosphere of 5% CO2/95% air. The culture media was then replaced with Adipocyte Maintenance Medium (Zen-Bio) and the cells maintained for an additional 9-12 days at 37° C. in a humidified atmosphere of 5% CO2/95% air with partial medium replacement every other day. Following 12-15 days of differentiation, test peptides were added at a final concentration of 10 μM in 0.1% DMSO and incubated for 20-22 hours in Adipocyte Maintenance Medium at 37° C. in a humidified atmosphere of 5% CO2/95% air. After 20-22 hours, 1 nM isoproterenol was added to all wells except untreated controls and test peptides were replenished. Insulin at 100 nM was added to control wells. Cells were incubated for 3 hours in Assay Buffer (Zen-Bio) at 37° C. in a humidified atmosphere of 5% CO2/95% air. Free fatty acid concentrations in the media were determined using a Free Fatty Acid Assay kit (Zen-Bio) according to the manufacturer's instructions using a Cytation 3 plate reader at 540 nm (BioTek, Winooski, Vt.). Absorbance values were corrected for untreated background and expressed relative to isoproterenol treated cells. Treatment with isoproterenol (1 nM) alone was used as the free fatty acid level stimulatory control. The relative standard deviation of the isoproterenol control was <10%. […] Free fatty acid levels for insulin (100 nM) treatment were <5% of the isoproterenol control value.

C2C12 Mouse Myoblasts = assay: Glucose utilization in C2C12 mouse myoblasts; format: cell-based; conditions: metformin 1 mM
Experimental: The effect of the peptides on glucose metabolism can be assessed using an assay of glucose utilization in cultured cultured cells such as mouse myoblasts. Peptides were initially prepared as 10 mM stock in DMSO and used at a final concentration of 10 μM (0.1% DMSO). C2C12 mouse myoblast cell line was purchased from American Type Culture Collection (Manassas, Va.). C2C12 cultures were maintained at 37° C. in a humidified atmosphere of 5% CO2/95% air with medium changes every second day. C2C12 cells were grown in DMEM (1 g/L glucose) supplemented with 10% FBS with 100 IU/ml penicillin and 100 μg/ml streptomycin. C2C12 cells were seeded at 7,000 cells per well on 96-well plates and cultured to confluence. Once the cell reached confluence the media was changed to DMEM (1 g/L glucose) supplemented with 2% HS with 100 IU/ml penicillin and 100 μg/ml streptomycin and maintained at 37° C. in a humidified atmosphere of 5% CO2/95% air, 5 days post-induction of differentiation fresh DMEM (1 g/L glucose) supplemented with 2% HS with 100 IU/ml penicillin and 100 μg/ml streptomycin was added to cultures. Cells were maintained at 37° C. in a humidified atmosphere of 5% CO2 and 95% air for 5 hours. After 5 hours test peptides at 10 μM or controls (0.5 mM or 1 mM metformin in 1% DMSO) prepared in fresh differentiation medium were added to cells and the cultures were maintained at 37° C. in a humidified atmosphere of 5% CO2/95% air for 18-22 hours. At the end of the incubation culture media was removed from the cells and the remaining glucose concentration was measured using a Glucose Assay kit (Abcam) according to the manufacturer's instructions, using a Cytation 3 plate reader at 570 nm (BioTek, Winooski, Vt.). Glucose concentrations in the medium were calculated relative to 0.1% DMSO treated control cells. The relative standard deviation of the result for the 0.1% DMSO treated control was <20%. Metformin was used as a positive control for reduction of glucose levels (increased glucose utilization glucose levels for treatment with metformin (1 mM) treatment were <20% of the 0.1% DMSO treated control value. The results are reported in Table 7.

[1] = test system: CXCR4/CXCL12 induced p-MEK; assay: CXCR4/CXCL12 induced p-MEK in Jurkat cells (ELISA); format: cell-based, human; conditions: Homo sapiens, Jurkat, 5 min
Method in brief: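 Jurkat cells in RPMI+GlutaMax containing 10% FBS and 1% penicillin/streptomycin, fresh or conditioned, were resuspended at 2×10^6 cells/ml and […] aliquots placed in tubes. After a 5 min stimulation they were pelleted, rinsed with HBSS and lysed with PMSF and protease/phosphatase inhibitors. Phospho-MEK1 (Ser217/221) was quantified by sandwich ELISA with absorbance read at 450 nm.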

Jurkat cells = assay: CXCL12 mediated cell migration, Jurkat cells; format: cell-based, human; conditions: Homo sapiens, Jurkat, 1 h, read-out: Percent Inhibition of CXCL12 Mediated Migration (1.1 μM Test Article)
Method in brief: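 Jurkat cells in serum-free RPMI with 0.5% BSA, 250,000 per upper chamber of a 5 μm Transwell, with peptides at 1.1 μM final. Migration toward CXCL12 ran 1 h at 37 °C in 5% CO2. Cells reaching the lower chamber quantified by ATP luminescence (CellTiter-Glo 2.0).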

U937 cells = assay: CXCL12 mediated cell migration, U937 cells; format: cell-based, human; conditions: Homo sapiens, U-937, 4 h, read-out: Percent Inhibition of CXCL12 Mediated Migration
Experimental: Peptides were initially prepared as 1 mM stock in H2O and tested at a final concentration of 1 μM. […] U937 cells were resuspended in serum free media containing 0.5% bovine serum albumin (RPMI+GlutaMax (Gibco/Thermo Fisher Scientific, Gaithersburg, Md.)) at density of 5×10^6 cells/ml. […] Following the 4 hour incubation period the filter inserts were carefully removed and the migration of cells across the filter into the bottom chamber (receiver wells) was determined by measuring ATP levels using Cell TiterGlo 2.0, according to manufacturer's instructions (Promega, Madison, Wis.); luminescence measured using a Cytation 3 plate reader (BioTek, Winooski, Vt.).

Rat H-4-II-E Cells = assay: TBHP-induced reactive oxygen species (DCFDA); format: cell-based; conditions: sulforaphane 10 uM
Experimental: The protective or synergistic effect of the peptides on cellular levels of reactive oxygen species (ROS) induced by oxidative stress can be assessed using an assay of ROS in cultured cells exposed to a suitable oxidative stress. Peptides were initially prepared as 10 mM stock in DMSO and tested at a final concentration of 10 μM (0.1% DMSO). […] TBHP was used at final concentration of […]. Sulforaphane was used at a final concentration of 10 uM as a protective antioxidant control against TBHP induced ROS production. DCFDA Cellular ROS Detection Assay kit was purchased from […]. H-4-II-E rat liver hepatoma cell line was purchased from American Type Culture Collection (Manassas, Va.). H-4-II-E cells were grown in DMEM supplemented with 10% FBS with 100 IU/ml penicillin and 100 μg/ml streptomycin. Cultures were maintained at 37° C. in a humidified atmosphere of 5% CO2/95% air. H-4-II-E cells were seeded at 15,000-20,000 cells per well on 96-well plates. The next day cells were incubated with test peptides at 10 μM in 0.1% DMSO or sulforaphane at 10 uM and maintained at 37° C. in a humidified atmosphere of 5% CO2/95% air for 18-20 hours. After 18-20 hours of incubation the cells were loaded with DCFDA for 45 min. TBHP at 100 μM was then added to the appropriate wells for 1 hour. ROS activity was determined using a DCFDA Cellular ROS Detection Assay kit (Abcam) according to the manufacturer's instructions. Fluorescence in each sample well on the plate was measured using a Cytation 3 plate reader at Ex/Em=485/535 nm (BioTek, Winooski, Vt.). Activity was calculated relative to TBHP control. […] Activity was calculated relative to THBP treated control.

[2] = Cell viability, PrestoBlue assay; format: cell-based; conditions: human; read-out: Cell viability, % of background corrected DMSO control value
Experimental: The effect of the peptides on cell viability can be assessed in cultured cells using suitable assay of viability such as the PrestoBlue® assay (Thermo Fisher Scientific, Waltham, Mass.). Peptides were initially prepared as 10 mM stock in DMSO and tested at a final concentration of 10 μM (0.1% DMSO). […] PrestoBlue Assay Reagent was purchased from Thermo Fisher Scientific. A172 human brain glioblastoma cell line was purchased from American Type Culture Collection (Manassas, Va.). A172 cells were grown in DMEM supplemented with 10% FBS with 100 IU/ml penicillin and 100 μg/ml streptomycin. Cultures were maintained at 37° C. in a humidified atmosphere of 5% CO2/95% air. A172 cells were seeded at 8,000 cells per well on 96-well plates. […] Cell viability was determined using a PrestoBlue Assay reagent […] according to the manufacturer's instructions. Absorption for each sample well on the plate was measured using a Cytation 3 plate reader at 560 nm and 590 nm (BioTek, Winooski, Vt.). Activity was calculated relative to 0.1% DMSO untreated control. Treatment with 0.1% DMSO alone was used as the cell viability activity control. The relative standard deviation of the DMSO control was <5%.

[3] = test system: SH-SY5Y Neuroblastoma Cells; assay: ATP levels (CellTiter-Glo); format: cell-based, human; conditions: staurosporine 1 μM
Experimental: The effect of the peptides on cellular metabolism can be assessed using an assay of ATP levels in cultured cells such as human neuroblastoma cells. Peptides were initially prepared as 10 mM stock in DMSO and used at a final concentration of 10 μM (0.1% DMSO). […] CellTiter-Glo® Assay kit was purchased from Promega. SH-SY5Y human bone marrow neuroblastoma cell line was purchased from American Type Culture Collection (Manassas, Va.) and licensed from Memorial Sloan-Kettering Cancer Center (New York, N.Y.). SH-SY5Y cells were grown in DMEM/F12 medium supplemented with 10% FBS with 100 IU/ml penicillin and 100 μg/ml streptomycin. Cultures were maintained at 37° C. in a humidified atmosphere of 5% CO2/95% air. SH-SY5Y cells were seeded at 30,000 cells per well on 96-well plates. […] ATP levels were determined using a CellTiter-Glo Assay kit (Promega) according to the manufacturer's instructions. Luminescence for each sample well on the plate was measured using a Cytation 3 plate reader (BioTek, Winooski, Vt.). Activity was calculated relative to 0.1% DMSO treated control. The relative standard deviation of the result for the 0.1% DMSO treated control was <5%.

Insulin [reference compound]
Free fatty acid levels, % of isoproterenol control value (3T3-L1 Mouse Adipocytes): < 5%

CN(C)C(=N)N=C(N)N [metformin, Metformin, reference compound]
Glucose levels, % of 0.1% DMSO treated control value (C2C12 Mouse Myoblasts): < 20%

c1cc(CN2CCCNCCNCCCNCC2)ccc1CN1CCCNCCNCCCNCC1 [AMD3100, reference compound]
inhibition at 0.1 µM ([1]; read-out: Percent Inhibition of CXCR4/CXCL12 Induced p-MEK (100 nM Test Article)): 79%
inhibition at 1 µM ([1]; read-out: Percent Inhibition of CXCR4/CXCL12 Induced p-MEK (1 μM Test Article)): 91%
inhibition at 1.1 µM (Jurkat cells): 91%
inhibition at 30 µM (U937 cells): 99%

C[S+]([O-])CCCCN=C=S (stereo not drawn) [sulphorophane, Sulforaphane, reference compound]
ROS levels, % of the THBP-induced ROS level (Rat H-4-II-E Cells): 45.5%

CN[C@@H]1C[C@H]2O[C@@](C)([C@@H]1OC)n1c3ccccc3c3c4c(c5c6ccccc6n2c5c31)C(=O)NC4 [staurosporine, Staurosporine, reference compound]
viability at 1 µM [2]: < 75%
ATP levels, % of 0.1% DMSO treated control value [3]: < 5%
